Assay results reported in patent publication US4002733A, “Sunscreening compositions” (Minnesota Mining and Manufacturing Company, priority 1974, dated 1977).

Test: UV absorption of the product in solution (absorption maximum, Epsilon value)
Assay type: physicochemical
Details: solvent not stated

SMILES: CCC(=O)c1ccc(NC(=O)CCCCCCCCC(=O)Nc2ccc(C(=O)CC)cc2)cc1 [Example 4]
- absorption maxima: 292 nm
- molar extinction coefficient (Epsilon value): 48,000
